The source of these data is US7282590B2, “Drug conjugates” (The Research Foundation of State University of New York, priority 2004, dated 2007).

The nature of data set [1]: Cleavage of the disulfide bond in the drug-linker conjugate (drug release with cysteine as a model of glutathione, monitored by HPLC). The data set is classed as physicochemical. The note with it: cysteine in buffer pH 7.0 / CH3CN, room temperature, after 2 hours. As for the experimental part:
In order to confirm that the designed drug-release mechanism works under physiological conditions, a control experiment was performed using an anticancer linker drug conjugate and cysteine as a model of glutathione. The results of the experiment below provide clear evidence that the drug is released according to the desired mechanism of the invention.
To a solution of the drug-linker conjugate, 2′-(5-fluoro-2-methyldisulfanylphenyl)acetyl-3′-dephenyl-3′-(2-methylpropyl)-10-propanoyldocetaxel, (4.8 mg, 0.0045 mmol) in CH3CN (1.1 mL) was added cysteine (2.20 mg, 0.018 mmol) in buffer (pH 7.0, 0.56 mL) solution. The mixture was stirred at room temperature. The progress of the disulfide cleavage and drug release process was monitored by HPLC [Conditions: C-18 column. Flow rate: H2O, 0.6 mL/min; CH3CN, 0.4 mL/min., ambient temperature] periodically. The formations of thiolactone (5-fluoro-3H-benzo[b]thiophen-2-one) (retention time=9.05 min) and taxoid (3′-dephenyl-3′-(2-methylpropyl)-10-propanoyldocetaxel) (retention time=14.01 min) as well as the disappearance of the drug-linker conjugate (retention time=18.20 min) was clearly observed.

On to “2′-(5-fluoro-2-methyldisulfanylphenyl)acetyl-3′-dephenyl-3′-(2-methylpropyl)-10-propanoyldocetaxel”, for which the “disappearance of the drug-linker conjugate (disulfide cleavage and drug release: release of the taxoid, formation of the thiolactone)” value in data set [1] is “completely disappeared”. `CC(C)(CC(=O)O)c1ccccc1SSc1ccccn1` [Example 7, 3-Methyl-3-[2-(pyridine-2-yldisulfanyl)phenyl]butanoic acid] gave a melting point of 122 to 125 °C.
